Here are results for 7 compounds from PubChem BioAssay (NCI).

Holding throughout (experiment): DTP human tumour cell line panel, 48 h
In assay [1] the test system is HS 578T breast.
Assay [2] relates to MDA-N.
In assay [3] the test system is NCI-H23 lung.
Assay [4] relates to SK-OV-3 ovarian.
Assay [5] relates to BT-549 breast.
The subject of assay [6] is UO-31 renal.
The test system of assay [7] is SF-539 CNS.
Assay [8] concerns HCC-2998 colon.
The subject of assay [9] is HOP-62 NSCLC.
Assay [10] concerns SF-268 CNS.
In assay [11] the test system is CAKI-1 renal.
Assay [12] relates to SR leukemia.
For assay [13], the system named is MDA-MB-435.
For assay [14], the system named is EKVX NSCLC.
Assay [15] relates to HOP-92 NSCLC.
For assay [16], the system named is TK-10 renal.
Assay [17] has as its system NCI-H460 lung.
In assay [18] the test system is COLO 205 colon.
Assay [19] concerns NCI/ADR-RES ovarian.
The test system of assay [20] is LOX IMVI melanoma.

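Values below derive from 48-hour exposures of cells grown in 96-well plates, with endpoints linearly interpolated between the two concentrations bracketing the appropriate inhibition level. TGI: total growth inhibition.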 A value given as a limit tells only on which side of the number the result lay.

By TGI is commonly meant the concentration giving total growth inhibition. A lower TGI goes with more potent growth arrest. Take `O=C1C=C(NCC(c2ccccc2)c2ccccc2)C(=O)c2ncccc21`: the concentration for total growth inhibition (TGI) in [1] was determined as 12.3 µM; in assay [2], 3.38 µM; in assay [3], 5.76 µM; in assay [4] it was 47.6 µM; in [5], 5.09 µM; in assay [6], 12.2 µM. The total growth inhibition concentration (TGI) in assay [7] is 8.55 µM; in [8], 2.12 µM; in assay [9], 4.02 µM; in assay [10] it was 13.8 µM; in assay [11], 11.4 µM; in [12], 4.87 µM. Further, the TGI in assay [13] is 2.84 µM; in assay [14] it was 7.83 µM; in assay [15], 12.9 µM; in assay [16], 51.5 µM; in assay [17], 1.92 µM; in assay [18], 24.4 µM. Moreover, the total growth inhibition concentration (TGI) in [19] was 8.05 µM; in [20] it was 5.23 µM.
`CSC1(C(=O)O)C2CCC3C2CCC31` (stereo not given): the TGI in assay [1], in [2], in [3], in assay [4], in assay [5] and in assay [6] was over 100 µM each time. Further, the TGI in assay [7], in assay [8], in assay [9], in assay [10], in assay [11] and in assay [12] was over 100 µM in each case. The TGI in assay [13], in [14], in assay [15], in assay [16], in [17] and in [18] was over 100 µM in each case. In addition, the concentration for total growth inhibition (TGI) in assay [19] and in assay [20] was over 100 µM each time.
As for `COc1ccc2c(C)cc(N/N=C/c3ccc(C)s3)nc2c1`, the concentration for total growth inhibition (TGI) in [1] was over 90.9 µM; in assay [2] it was over 62.7 µM; in assay [3], over 48.8 µM; in [4] it was 43.6 µM; in assay [5] it was 62.8 µM; in [6], 35.4 µM. Also, the TGI in assay [7] is 36.5 µM; in [8] it was 19.6 µM; in [9] it was 56.9 µM; in [10], over 100 µM; in assay [11], 34.4 µM; in [12], 31 µM. In addition, the TGI in assay [13] is over 52.4 µM; in assay [14], 32.2 µM; in assay [15] it was over 51.6 µM; in assay [16] it was over 54.3 µM; in [17] it was 20 µM; in assay [18], 9.24 µM. Moreover, the concentration for total growth inhibition (TGI) in assay [19] turned out to be 73.5 µM; in [20] it was 11.1 µM.
For `CN(/N=C/C=N/N(C)C1=NCCCN1)C1=NCCCN1`, the total growth inhibition concentration (TGI) in assay [1], in [2], in assay [3], in assay [4], in [5] and in [6] was over 100 µM in each case. Further, the TGI in assay [7], in [8], in [9], in [10], in assay [11] and in [12] was over 100 µM throughout. For the same compound, the concentration for total growth inhibition (TGI) in assay [13], in assay [14], in assay [15], in assay [16], in assay [17] and in assay [18] was over 100 µM in each case. In addition, the TGI in assay [19] and in assay [20] was over 100 µM in each case.
In the case of `COC(=O)[C@@H](NC(=O)[C@H](N)Cc1ccc(N(CCCl)CCCl)cc1)C(C)C`, the TGI in assay [1] was 77.7 µM; in assay [2], over 68 µM; in assay [3] it was 16.8 µM; in [4], over 100 µM; in assay [5], 65.3 µM; in assay [6], 33 µM. Besides, the concentration for total growth inhibition (TGI) was 67.6 µM in [7]; 26.5 µM in assay [8]; over 100 µM in assay [9]; 97.1 µM in [10]; 7.53 µM in assay [11]; over 38.6 µM in assay [12]. Moreover, the total growth inhibition concentration (TGI) was 47.5 µM in assay [13]; over 90.8 µM in assay [14]; 5.72 µM in [15]; 56.7 µM in assay [16]; 26.3 µM in assay [17]; over 64.4 µM in assay [18]. In addition, the results for the TGI in assay [19] and in [20] were 40.8 µM and 37.9 µM, respectively.
Turning to `Cc1cc(N(CCC#N)CCC#N)ccc1/C=C(\NC(=O)/C=C/c1ccccc1)C(=O)Nc1ccc(Cl)cc1`, the TGI in assay [1], in assay [2], in assay [3], in [4], in assay [5] and in [6] was over 100 µM throughout. The TGI was over 100 µM in assay [7]; over 58.7 µM in assay [8]; over 100 µM in assay [9]; over 100 µM in assay [10]; 98 µM in assay [11]; over 100 µM in assay [12]. In addition, the TGI in [13] is over 100 µM; in assay [14], over 100 µM; in [15], over 100 µM; in assay [16] it was over 100 µM; in [17] it was over 100 µM; in assay [18], 12.7 µM. Further, the total growth inhibition concentration (TGI) in assay [19] and in [20] was over 100 µM each time.
Take `Cc1nc2c(O)c3c(c(O)c2nc1C)C1C=CC3CC1`: the TGI in assay [1] was 78.3 µM; in assay [2] it was 7.37 µM; in [3], 26.5 µM; in assay [4], 55.2 µM; in [5], 30.4 µM; in [6], 24.8 µM. Further, the TGI in assay [7] is 22 µM; in assay [8] it was over 59.2 µM; in assay [9], 36.4 µM; in assay [10], 32.9 µM; in assay [11], 14.9 µM; in assay [12], over 90.8 µM. For the same compound, the TGI in assay [13] is 6.2 µM; in [14], 24.6 µM; in [15], 7.75 µM; in [16], 40.8 µM; in assay [17] it was over 72.6 µM; in assay [18] it was 38.4 µM. Moreover, the TGI in assay [19] amounted to 18.5 µM; in assay [20] it was 9.95 µM.
